1 substance from patent publication US5578496A, “Detection of autoantibodies associated with the disease myasthenia gravis” (Board of Regents, Baylor College of Medicine, priority 1994, dated 1996) can be followed below.

*1 amine or outer side, *2 acyl side, *3 side chain or, on linkers, in order; H or OH if unused. Bridges are numbered along the chain shown (N, C = ends). Where no end group is shown, it is not given here. mPEG = monomethoxypolyethylene glycol; Suc = O=C(CCC(=O)[*:2])[*:1]

In one assay the test system is peptide α182-198. In words: Radioimmunoassay of anti-AChR antisera from pretreated mice: antibody binding to peptide α182-198. In kind it is in vivo, C57/BL6 mice. Particulars: Group 1 compared to control groups; P>0.1-0.5. On the procedure: (§1) Six weeks old C57/BL6 mice were purchased from Charles River Breeding Laboratories (Wilmington, Mass.). Preimmune sera were obtained from the mice for use as controls in subsequent antibody binding assays. After 2-weeks rest, the mice were divided into three groups which received, at eleven, seven and three days before immunization with AChR, an intraperitoneal injection (5 μg in 25 μl of PBS [0.15M NaCl in 0.01M sodium phosphate buffer, pH 7.2]) of either the mPEG-(α125-148) conjugate (Group 1), mPEG-nonsense peptide conjugate (Group 2) or unaltered free peptide α125-148 (Group 3) (FIG. 5). Then, on day 0, the mice were immunized subcutaneously in one hind footpad and intramuscularly in the same side shoulder with 20 μg of Torpedo AChR in 100 μl emulsion containing equal volumes of complete Freund's adjuvant and PBS. Thirty days later, the mice were immunized with a similar dose of the receptor in the opposite footpad and shoulder. On the 37th day, test bleeds were obtained from the mice for determination of the antibody titers. Electrophysiological studies were performed on the 38th and 39th days. […]
(§2) One mg of the synthetic peptide was dissolved in 50 μl dimethylformamide and then diluted with PBS to 25 μg/ml. […] The plates were incubated for 3 hours at room temperature, after which they were washed and the wells were cut out and counted for bound radioactivity. […]

Another assay has as its system lymph node cells (LNC). Kind of assay: T cell proliferation assay of lymph node cells from AChR-primed mice. To be noted: LNC challenged with overlapping Torpedo AChR α chain peptides, α125-148 and AChR; compared with mPEG-Nonsense peptide group. It counts as cell-based, C57/BL6 mice. On the procedure: as §1, with “PBS.” for “PBS. Thirty days later, the mice were immunized with a similar dose of the receptor in the opposite footpad and shoulder. On the 37th day, test bleeds were obtained from the mice for determination of the antibody titers. Electrophysiological studies were performed on the 38th and 39th days.”
Lymph node cells (LNC) were harvested from the AChR-primed mice of each group ten or eleven days after the last AChR immunization. […] The number of viable cells was determined by vital staining with fluorescein diacetage. […] After incubation for 3 days at 37° C. in a humidified air/CO2 (19:1) atmosphere, the cultures were pulsed (18 hr) with 1 μCi/well [^3 H]-thymidine (Research Products International, Mount Prospect, Ill.) and then harvested on to glass microfiber filters (Whatman, Clinton, N.J.) for counting of radioactivity by liquid scintillation.

The subject of the next assay is peptide α45-60. Kind of assay: Radioimmunoassay of anti-AChR antisera from pretreated mice: antibody binding to peptide α45-60. In kind it is in vivo, C57/BL6 mice. Particulars: Group 1 compared to control groups; P>0.1-0.5. The method, then: as §1, §2
A further assay concerns whole Torpedo AChR. In words: Radioimmunoassay of anti-AChR antisera from pretreated mice: antibody binding to whole AChR. In kind it is in vivo, C57/BL6 mice. Particulars: Group 1 compared to control groups; P>0.5. On the procedure: as §1, §2
The subject of another assay is peptide α125-148. In words: Radioimmunoassay of anti-AChR antisera from pretreated mice: antibody binding to peptide α125-148. In kind it is in vivo, C57/BL6 mice. On the procedure: Six weeks old C57/BL6 mice were purchased from Charles River Breeding Laboratories (Wilmington, Mass.). Preimmune sera were obtained from the mice for use as controls in subsequent antibody binding assays. After 2-weeks rest, the mice were divided into three groups which received, at eleven, seven and three days before immunization with AChR, an intraperitoneal injection (5 μg in 25 μl of PBS [0.15M NaCl in 0.01M sodium phosphate buffer, pH 7.2]) of either the mPEG-(α125-148) conjugate (Group 1), mPEG-nonsense peptide conjugate (Group 2) or unaltered free peptide α125-148 (Group 3) (FIG. 5). Then, on day 0, the mice were immunized subcutaneously in one hind footpad and intramuscularly in the same side shoulder with 20 μg of Torpedo AChR in 100 μl emulsion containing equal volumes of complete Freund's adjuvant and PBS. Thirty days later, the mice were immunized with a similar dose of the receptor in the opposite footpad and shoulder. On the 37th day, test bleeds were obtained from the mice for determination of the antibody titers. Electrophysiological studies were performed on the 38th and 39th days. Finally, the mice were sacrificed on the 40th day and lymph node cells were obtained for T cell studies.
One mg of the synthetic peptide was dissolved in 50 μl dimethylformamide and then diluted with PBS to 25 μg/ml. A solution of Torpedo AChR in PBS was prepared to contain 2.5 μg/ml. Aliquots (50 μl/well) of the peptide or AChR solutions were added to a 96-well microtiter plate (Falcon Micro Test III flexible assay plate, Becton Dickinson, Oxcard, Calif.) and the plates were incubated at room temperature overnight. After washing 3 times with PBS, the plates were blocked with 0.25% bovine serum albumin (BSA [bovine serum albumin]) in PBS (50 μl/well) at 37° C. for 90 minutes. The plates were washed again 5 times with PBS and to each well was added 50 μl of the serum from AChR-immunized mice, pre-diluted with PBS containing 0.10% BSA, and the plates were covered and allowed to stand at room temperature overnight. After 5 washes with PBS, 50 μl of rabbit IgG antibodies (2.5 μg/ml) against mouse IgG and IgM (Accurate Chemical Scientific Corporation, Westbury, N.Y.) was added to each well and the plates were incubated at 37° C. for 3 hours. The plates were then washed 5 times with PBS and ^125 I-labeled protein A (2×10^5cpm in 50 μl of PBS-0.1% BSA) was added to each well. The plates were incubated for 3 hours at room temperature, after which they were washed and the wells were cut out and counted for bound radioactivity. Pre-immune serum samples, obtained from the mice prior to any experimental treatments, were used as controls to correct for non-specific binding.

Assay [1] concerns experimental autoimmune myasthenia gravis (EAMG). Kind of assay: Electromyography (repetitive nerve stimulation) for electrophysiological EAMG after immunization with Torpedo AChR. In kind it is in vivo, C57/BL6 mice. The method, then: Six weeks old C57/BL6 mice were purchased from Charles River Breeding Laboratories (Wilmington, Mass.). Preimmune sera were obtained from the mice for use as controls in subsequent antibody binding assays. […] Then, on day 0, the mice were immunized subcutaneously in one hind footpad and intramuscularly in the same side shoulder with 20 μg of Torpedo AChR in 100 μl emulsion containing equal volumes of complete Freund's adjuvant and PBS. Thirty days later, the mice were immunized with a similar dose of the receptor in the opposite footpad and shoulder. On the 37th day, test bleeds were obtained from the mice for determination of the antibody titers. Electrophysiological studies were performed on the 38th and 39th days. Finally, the mice were sacrificed on the 40th day and lymph node cells were obtained for T cell studies. To document the electrophysiological evidence of EAMG, amplitudes of serial muscle action potentials were measured by electromyography (EMG) during the repetitive stimulation of the nerve in immunized mice, using the Mystro EMG system (TECA Corporation). A pair of wire electrodes were surgically implanted, encircling the sciatic nerve, two days before EMG. The nerve was stimulated through the implanted electrodes by 3 Hz trains of supramaximal electric current with a duration of 200 microseconds. The corresponding muscle action potentials were recorded with an electrode subcutaneously inserted over the gastrocnemius muscle. A reference electrode was placed at the ankle. Ether inhalation was used during the surgical and recording procedures. […] Students' t-test was used to analyze the differences of amplitude changes between the two groups. A typical myasthenic response of a greater than 10% decrement was considered to constitute an electrophysiological evidence of EAMG. The frequency of electrophysiological EAMG was calculated in each group and analyzed by chi-square test.

Setting [2] is: 5 μg i.p. at 11, 7 and 3 days before immunization with Torpedo AChR, EMG on days 38-39.

Regarding “mPEG-(α125-148): monomethoxypolyethylene glycol coupled via succinyl to the N-terminal α-NH2 of Torpedo AChR peptide α125-148 (Group 1) ({mPEG-Suc}-KSYCEIIVTHFPFDQQNCTMKLGI; disulfide 4-18 (inferred); UniProt P02710 149-172, looked up, fragment)”, the “antibodies against peptide α182-198” value in the assay with peptide α182-198 is listed as “no significant suppression”. Also, the “T cell proliferation profiles” value in the assay with lymph node cells (LNC) is given as “did not show meaningful differences”. Also, in the assay on peptide α45-60, the “antibodies against peptide α45-60” value is “no significant suppression”. Moreover, the “antibodies against whole receptor” value in the assay with whole Torpedo AChR was “no significant suppression”. The “antibody binding to peptide α125-148, mean net cpm ± standard deviation” value in the assay on peptide α125-148 (anti-AChR antisera of individual mice, day 37 bleeds) came out at 1414±1801 cpm. The “antibody binding to peptide α125-148, pooled antisera in serial dilutions” value with peptide α125-148 (pooled serum of each group, various dilutions) is reported as “consistently lower amounts of antibody binding”. Moreover, in the assay on peptide α125-148 (pretreatment prior to immunization with Torpedo AChR), the “antibodies bound to peptide α125-148 in anti-AChR antisera” value was “significantly decreased”. Moreover, in assay [1] (setting [2]), the “mean amplitude change of muscle action potentials” value was -5.4% and the “mice showing a decremental response greater than 10%” value amounted to 20%. The “effect on development of electrophysiological EAMG” value in assay [1] (prior administration, then immunization with AChR) was “suppresses development of electrophysiological EAMG but the suppression was incomplete”.
